# *1 amine or outer side, *2 acyl side, *3 side chain or, on linkers, in order; H or OH if unused. Where a SMILES comes first, the peptide text is derived from it. [ ]: non-standard residue; d: D form. The star is where a group is joined. ξ: configuration not given here. X1 = O=C(Cc1ccc(N[*:1])cc1)[*:2]; Ile(3ξ) = CCC(C)[C@H](N)C(=O)O; X4 = O=C(Cc1ccccc1N[*:1])[*:2]; NH(2-Me-phenyl) = Cc1ccccc1N*; hLeu = CC(C)CC[C@H](N)C(=O)O; X12 = c1ccc(Oc2ccccc2N*)cc1; Nle = CCCC[C@H](N)C(=O)O; CO = O=C([*:1])[*:2]
# Biological target: Integrin alpha-4/beta-1 (Homo sapiens, UniProt P05556+P13612, T112H)
# Assay: Jurkat Cell Adhesion Inhibition Assay
row,IC50,SMILES
1,3000 nM,"CCCC[C@H](NC(=O)Cc1ccccc1NC(=O)Nc1ccccc1C)C(=O)N[C@@H](CC(=O)O)C(=O)N[C@H](C(=O)N1CCC[C@H]1C(N)=O)C(C)CC (stereo partly drawn) [(3S)-3-{[(2S,3S)-1-[(2S)-2-carbamoylpyrrolidin-1-yl]-3-methyl-1-oxopentan-2-yl]carbamoyl}-3-[(2S)-2-[1-(2-{[(2-methylphenyl)carbamoyl]amino}phenyl)acetamido]hexanamido]propanoic acid] ({NH(2-Me-phenyl)-CO}-[X4][Nle]D[Ile(3ξ)]P-NH2)"
2,500 nM,"CCCC[C@H](NC(=O)Cc1ccc(NC(=O)Nc2ccccc2Oc2ccccc2)cc1)C(=O)N[C@@H](CC(=O)O)C(=O)N[C@H](C(=O)N1CCC[C@H]1C(N)=O)C(C)CC (stereo partly drawn) [(3S)-3-{[(2S,3S)-1-[(2S)-2-carbamoylpyrrolidin-1-yl]-3-methyl-1-oxopentan-2-yl]carbamoyl}-3-[(2S)-2-[1-(4-{[(2-phenoxyphenyl)carbamoyl]amino}phenyl)acetamido]hexanamido]propanoic acid] ({X12-CO}-[X1][Nle]D[Ile(3ξ)]P-NH2)"
3,3 nM,"CCC(C)[C@H](NC(=O)[C@H](CC(=O)O)NC(=O)[C@H](CCC(C)C)NC(=O)Cc1ccc(NC(=O)Nc2ccccc2C)cc1)C(=O)N1CCC[C@H]1C(N)=O (stereo partly drawn) [(3S)-3-{[(2S,3S)-1-[(2S)-2-carbamoylpyrrolidin-1-yl]-3-methyl-1-oxopentan-2-yl]carbamoyl}-3-[(2S)-5-methyl-2-[1-(4-{[(2-methylphenyl)carbamoyl]amino}phenyl)acetamido]hexanamido]propanoic acid] ({NH(2-Me-phenyl)-CO}-[X1][hLeu]D[Ile(3ξ)]P-NH2)"

# From BindingDB's records for doi:10.1002/bip.20588 (University of California Davis, 2006)
